Laboratory results as given in US20170368082A1, “FORMULATIONS OF BRINCIDOFOVIR” (priority 2016, published 2017).
Read-outs that look alike come from different tables or passages of the source.

Experiment: Phase 2 toxicokinetics of brincidofovir and cidofovir in plasma
Assay type: in vivo, Sprague-Dawley CD rats
Conditions: for Tmax: Sprague-Dawley CD, rat, plasma, iv, read-out: Median Tmax; for AUClast/Dose / Cmax/Dose / Tlast: brincidofovir in plasma, 1 mg/kg 2-hour IV infusion, Female rats
Protocol: Plasma samples (108) were collected 2 hours following the initiation of dosing on Day 1 and Day 7 (Group 1), or at 1, 2, 8, and 24 hours following the initiation of dosing on Day 1, and prior to administration and at 2, 8, and 24 hours following the initiation of dosing on Day 7 (Groups 2 and 3), and analyzed to determine the concentrations of brincidofovir and the metabolite, cidofovir), by LC/MS/MS.
Approximately 0.4 mL of whole blood was obtained via the tail vein from each animal at each time point. Animals were not fasted prior to blood collection. Blood was collected into tubes containing K2EDTA anticoagulant and placed on wet ice in an upright position, per facility SOP prior to processing. Plasma was separated by centrifugation (10 minutes at approximately 2000 g, at approximately 2-8° C.). Approximately 0.10 mL of plasma was transferred into a single cryotube appropriately labeled with study number, animal number, time point, date of sampling and sample type. Remaining plasma was transferred into a second cryotube and retained as a backup sample. Plasma frozen at approximately −80±10° C. within approximately 2 hours after collection of each blood sample until analysis. Animals were euthanized (CO2 inhalation) after the final blood collection.
In general, TK parameters were estimated using mean plasma concentrations of brincidofovir and cidofovir derived from the composite blood sampling design using Phoenix WinNonLin (V 6.3).
A composite blood sampling design was used such that each rat was sampled twice per sampling day. Blood was collected via tail vein from unanesthetized animals into tubes containing anticoagulant and placed on wet ice in an upright position. Animals were not fasted prior to blood collection. Plasma was separated by centrifugation (for 10 minutes at approximately 2000 g, at approximately 2-8° C.), and transferred into individually labeled cryotubes. All cryotubes containing the collected plasma samples were appropriately labeled as to study number, animal number, time point, date of sampling and sample type. All plasma samples were obtained and frozen at approximately −80° C. (±10° C.) within approximately 2 hours after collection of each blood sample until analysis.
Rat plasma bioanalysis was conducted by Pyxant Laboratories. Plasma samples were analyzed for concentrations of brincidofovir and cidofovir using a method based upon protein precipitation extraction followed by LC-MS/MS analysis; calibration ranges for brincidofovir and cidofovir were 1.00-1500 ng/mL and 5.00-750 ng/mL, respectively, (Pyxant study number 3025) for a 50 μL aliquot of rat plasma. Sample analysis for ISR was not performed as part of this non-GLP study.
For the generation of Mean Profiles, all sample concentrations that were below the limit of quantitation (BLQ) were set to 0.
All pharmacokinetic parameter estimates were completed using a Non-Compartmental Model (Model 200-202 for IV infusion administration). The AUClast and AUCinf were calculated using the linear up log down trapezoidal rule.

[1] = brincidofovir 1 mg/kg, Male, Day 1, 1 h
[2] = brincidofovir 1 mg/kg, Male, Day 1, 2 h
[3] = brincidofovir 1 mg/kg, Male, Day 7, 0 h
[4] = brincidofovir 1 mg/kg, Male, Day 7, 2 h
[5] = brincidofovir 15 mg/kg, Female, Day 1, 1 h
[6] = brincidofovir 15 mg/kg, Female, Day 1, 2 h
[7] = brincidofovir 15 mg/kg, Female, Day 1, 8 h
[8] = brincidofovir 15 mg/kg, Female, Day 1, 24 h
[9] = brincidofovir 15 mg/kg, Female, Day 7, 0 h
[10] = brincidofovir 15 mg/kg, Female, Day 7, 2 h
[11] = brincidofovir 15 mg/kg, Female, Day 7, 8 h
[12] = brincidofovir 15 mg/kg, Female, Day 7, 24 h
[13] = brincidofovir 15 mg/kg, Male, Day 1, 1 h
[14] = brincidofovir 15 mg/kg, Male, Day 1, 2 h
[15] = brincidofovir 15 mg/kg, Male, Day 1, 8 h
[16] = brincidofovir 15 mg/kg, Male, Day 7, 0 h
[17] = brincidofovir 15 mg/kg, Male, Day 7, 2 h

SMILES: CCCCCCCCCCCCCCCCOCCCOP(=O)(O)CO[C@H](CO)Cn1ccc(N)nc1=O [Brincidofovir]
- Difference in Cmax between female and male (1 or 15 mg/kg, Days 1 and 7): ≤ 54%
- Tmax (1 mg/kg, single and twice weekly 1 mg/kg): 2 h
- Tmax (15 mg/kg, single 15 mg/kg): 1 h
- Tmax (15 mg/kg, twice weekly 15 mg/kg): 2 h
- brincidofovir Mean Concentration (MC) (brincidofovir 1 mg/kg, Female, Day 7, 24 h): 0.00 ng/mL
- brincidofovir Imputed Mean Concentration (IMC) [1]: 227 ng/mL
- brincidofovir Mean Concentration (MC) [1]: 227 ng/mL
- brincidofovir Imputed Mean Concentration (IMC) [2]: 235 ng/mL
- brincidofovir Mean Concentration (MC) [2]: 235 ng/mL
- brincidofovir Mean Concentration (MC) (brincidofovir 1 mg/kg, Male, Day 1, 8 h): 0.00 ng/mL
- brincidofovir Mean Concentration (MC) (brincidofovir 1 mg/kg, Male, Day 1, 24 h): 0.00 ng/mL
- brincidofovir Imputed Mean Concentration (IMC) [3]: 0.00 ng/mL
- brincidofovir Mean Concentration (MC) [3]: 0.00 ng/mL
- brincidofovir Imputed Mean Concentration (IMC) [4]: 208 ng/mL
- brincidofovir Mean Concentration (MC) [4]: 208 ng/mL
- brincidofovir Mean Concentration (MC) (brincidofovir 1 mg/kg, Male, Day 7, 8 h): 0.00 ng/mL
- brincidofovir Mean Concentration (MC) (brincidofovir 1 mg/kg, Male, Day 7, 24 h): 0.00 ng/mL
- brincidofovir Imputed Mean Concentration (IMC) [5]: 3470 ng/mL
- brincidofovir Mean Concentration (MC) [5]: 3470 ng/mL
- brincidofovir Imputed Mean Concentration (IMC) [6]: 2570 ng/mL
- brincidofovir Mean Concentration (MC) [6]: 2570 ng/mL
- brincidofovir Imputed Mean Concentration (IMC) [7]: 6.53 ng/mL
- brincidofovir Mean Concentration (MC) [7]: 6.53 ng/mL
- brincidofovir Imputed Mean Concentration (IMC) [8]: 2.02 ng/mL
- brincidofovir Mean Concentration (MC) [8]: 2.02 ng/mL
- brincidofovir Imputed Mean Concentration (IMC) [9]: 0.00 ng/mL
- brincidofovir Mean Concentration (MC) [9]: 0.00 ng/mL
- brincidofovir Imputed Mean Concentration (IMC) [10]: 1660 ng/mL
- brincidofovir Mean Concentration (MC) [10]: 1660 ng/mL
- brincidofovir Imputed Mean Concentration (IMC) [11]: 5.45 ng/mL
- brincidofovir Mean Concentration (MC) [11]: 5.45 ng/mL
- brincidofovir Imputed Mean Concentration (IMC) [12]: 0.790 ng/mL
- brincidofovir Mean Concentration (MC) [12]: 0.790 ng/mL
- brincidofovir Imputed Mean Concentration (IMC) [13]: 4370 ng/mL
- brincidofovir Mean Concentration (MC) [13]: 4370 ng/mL
- brincidofovir Imputed Mean Concentration (IMC) [14]: 2840 ng/mL
- brincidofovir Mean Concentration (MC) [14]: 2840 ng/mL
- brincidofovir Imputed Mean Concentration (IMC) [15]: 9.59 ng/mL
- brincidofovir Mean Concentration (MC) [15]: 9.59 ng/mL
- brincidofovir Imputed Mean Concentration (IMC) [16]: 0.00 ng/mL
- brincidofovir Mean Concentration (MC) [16]: 0.00 ng/mL
- brincidofovir Imputed Mean Concentration (IMC) [17]: 1910 ng/mL
- brincidofovir Mean Concentration (MC) [17]: 1910 ng/mL
- brincidofovir Mean Concentration (MC) (brincidofovir 15 mg/kg, Male, Day 7, 8 h): 8.72 ng/mL
- AUClast/Dose (Day 1): 459 (h*ng/mL)/(mg/kg)
- Cmax/Dose (Day 1): 191 (ng/mL)/(mg/kg)
- Tlast (Day 1): 8 h
- AUClast/Dose (Day 7): 244 (h*ng/mL)/(mg/kg)
- Cmax/Dose (Day 7): 95.4 (ng/mL)/(mg/kg)
- Tlast (Day 7): 8 h
